Assay [1] has as its target T1, Protein cereblon/Tyrosine-protein kinase BTK (Homo sapiens, UniProt Q06187+Q96SW2). The assay is described as follows: PROTAC activity at CRBN/BTK in human MINO cells assessed as reduction in BTK level incubated for 24 hrs by Western blot analysis. It is filed as cell-based.
Target sequence in this assay (Q06187 whole entry): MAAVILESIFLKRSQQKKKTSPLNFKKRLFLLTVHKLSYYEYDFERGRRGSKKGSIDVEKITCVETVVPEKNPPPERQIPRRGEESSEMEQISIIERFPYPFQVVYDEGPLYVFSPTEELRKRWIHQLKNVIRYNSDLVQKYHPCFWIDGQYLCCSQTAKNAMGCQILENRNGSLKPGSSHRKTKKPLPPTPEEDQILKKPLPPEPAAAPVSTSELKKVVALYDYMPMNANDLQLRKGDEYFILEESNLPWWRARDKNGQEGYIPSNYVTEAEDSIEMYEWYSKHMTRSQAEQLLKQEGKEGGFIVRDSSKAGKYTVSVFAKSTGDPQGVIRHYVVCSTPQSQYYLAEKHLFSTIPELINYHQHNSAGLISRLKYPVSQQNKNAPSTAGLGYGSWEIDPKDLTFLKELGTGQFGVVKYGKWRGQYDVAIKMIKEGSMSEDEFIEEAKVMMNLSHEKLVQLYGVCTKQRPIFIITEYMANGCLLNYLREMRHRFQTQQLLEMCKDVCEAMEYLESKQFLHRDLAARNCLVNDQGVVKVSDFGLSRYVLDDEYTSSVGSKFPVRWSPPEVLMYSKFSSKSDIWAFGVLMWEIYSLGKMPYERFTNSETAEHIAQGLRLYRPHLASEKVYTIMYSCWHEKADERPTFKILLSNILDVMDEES
Target sequence in this assay (Q96SW2 whole entry): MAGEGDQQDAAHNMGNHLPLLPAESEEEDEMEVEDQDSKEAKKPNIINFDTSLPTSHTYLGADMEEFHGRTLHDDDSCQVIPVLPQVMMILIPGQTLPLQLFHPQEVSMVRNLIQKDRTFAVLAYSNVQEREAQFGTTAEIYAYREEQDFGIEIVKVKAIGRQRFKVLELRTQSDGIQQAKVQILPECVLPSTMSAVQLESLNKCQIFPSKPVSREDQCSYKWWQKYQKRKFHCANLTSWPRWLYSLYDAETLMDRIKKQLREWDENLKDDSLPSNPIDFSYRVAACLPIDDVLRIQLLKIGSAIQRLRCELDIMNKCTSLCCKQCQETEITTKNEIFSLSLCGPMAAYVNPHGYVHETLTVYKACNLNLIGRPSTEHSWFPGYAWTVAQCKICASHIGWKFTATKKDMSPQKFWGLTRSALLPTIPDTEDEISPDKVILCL
The target of assay [2] is T1, Protein cereblon/Tyrosine-protein kinase BTK. The assay is described as follows: PROTAC activity at CRBN/BTK in human MINO cells assessed as reduction in BTK level incubated for 24 hrs by Western blot analysis relative to control. It is filed as cell-based.
Target sequence in this assay (Q06187 2-659 limits assumed): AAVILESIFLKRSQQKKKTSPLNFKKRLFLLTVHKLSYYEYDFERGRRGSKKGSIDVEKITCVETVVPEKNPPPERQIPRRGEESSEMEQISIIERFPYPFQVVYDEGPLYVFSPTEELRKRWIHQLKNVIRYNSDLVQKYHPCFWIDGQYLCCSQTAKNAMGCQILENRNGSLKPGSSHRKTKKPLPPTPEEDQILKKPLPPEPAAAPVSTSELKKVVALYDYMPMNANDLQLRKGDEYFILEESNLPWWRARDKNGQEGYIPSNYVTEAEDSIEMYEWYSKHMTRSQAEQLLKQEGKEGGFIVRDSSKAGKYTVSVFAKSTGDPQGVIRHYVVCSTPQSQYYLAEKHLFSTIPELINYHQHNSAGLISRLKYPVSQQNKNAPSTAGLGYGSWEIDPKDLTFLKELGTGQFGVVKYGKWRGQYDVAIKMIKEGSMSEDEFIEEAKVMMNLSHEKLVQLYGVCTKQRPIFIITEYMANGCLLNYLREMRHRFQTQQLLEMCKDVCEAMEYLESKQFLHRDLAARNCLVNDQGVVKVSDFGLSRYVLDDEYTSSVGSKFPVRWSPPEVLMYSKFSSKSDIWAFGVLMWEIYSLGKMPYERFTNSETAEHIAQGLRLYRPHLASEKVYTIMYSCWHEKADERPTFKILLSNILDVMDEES
Target sequence in this assay (Q96SW2 whole entry partner): as the sequence (Q96SW2 whole entry) above
Assay [3] deals with IAP-Tyrosine-protein kinase BTK (Homo sapiens, UniProt P98170+Q06187+Q13489+Q13490). Briefly: PROTAC activity at IAP/BTK in human THP-1 cells assessed as reduction in BTK level incubated for 16 hrs by immunoblot analysis. The assay is classed as cell-based.
The target in assay [4] is T2, Protein cereblon/Indoleamine 2,3-dioxygenase 1 (Homo sapiens, UniProt P14902+Q96SW2). Briefly: PROTAC activity at CRBN/IDO1 in human HeLa cells assessed as induction of IDO1 degradation incubated for 24 hrs by immunoblot analysis relative to control. The assay is classed as cell-based.
Target sequence in this assay (P14902 whole entry, looked up): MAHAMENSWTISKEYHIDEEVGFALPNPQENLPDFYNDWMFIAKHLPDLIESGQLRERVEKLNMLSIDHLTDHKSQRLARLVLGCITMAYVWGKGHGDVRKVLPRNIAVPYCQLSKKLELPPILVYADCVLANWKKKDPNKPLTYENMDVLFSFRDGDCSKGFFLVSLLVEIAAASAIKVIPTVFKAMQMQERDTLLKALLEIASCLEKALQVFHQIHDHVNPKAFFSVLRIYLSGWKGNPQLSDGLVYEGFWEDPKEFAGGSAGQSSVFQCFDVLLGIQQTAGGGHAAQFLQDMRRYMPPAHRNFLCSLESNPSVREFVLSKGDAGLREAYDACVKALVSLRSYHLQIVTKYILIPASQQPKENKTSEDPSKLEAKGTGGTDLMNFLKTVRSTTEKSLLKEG
Target sequence in this assay (Q96SW2 whole entry, looked up): as the sequence (Q96SW2 whole entry) above
Assay [5] deals with T2, Protein cereblon/Indoleamine 2,3-dioxygenase 1. The assay is described as follows: PROTAC activity at CRBN/IDO1 in human HeLa cells assessed as induction of IDO1 degradation incubated for 24 hrs by immunoblot analysis. The assay is classed as cell-based.
Target sequence in this assay (P14902 whole entry): as the sequence (P14902 whole entry, looked up) above
Target sequence in this assay (Q96SW2 whole entry): as the sequence (Q96SW2 whole entry) above
In assay [6] the test system is PC-3. Briefly: Antiproliferative activity against human PC-3 cells assessed as inhibition of cell proliferation incubated for 48 hrs by CCK8 assay. It is filed as functional, cell-based. Particulars: PC-3, 48 h.
For assay [7], the target named is T3, von Hippel-Lindau disease tumor suppressor/Tyrosine-protein kinase ABL1/Breakpoint cluster region protein (Homo sapiens, UniProt P00519+P11274+P40337). Briefly: PROTAC activity at VHL/BCR-Abl (unknown origin) assessed as induction of BCR-Abl degradation by cell based assay.
Assay [8] concerns the target T3, von Hippel-Lindau disease tumor suppressor/Tyrosine-protein kinase ABL1/Breakpoint cluster region protein. Briefly: PROTAC activity at VHL/BCR-Abl (unknown origin) assessed as induction of BCR-Abl degradation by cell based assay relative to control.
Assay [9] addresses Protein cereblon-NS3 (Hepacivirus hominis, UniProt A3EZJ3+Q96SW2). Briefly: PROTAC activity at CRBN/NS3 of HCV assessed as induction of NS3-eGFP-2A-mCherry degradation incubated for 4 hrs by flow cytometry.
Assay [10] deals with BRD4/E3 ubiquitin-protein ligase Mdm2 (Homo sapiens) (UniProt Q00987+O60885). Briefly: PROTAC activity at MDM2/BRD4 in human HCT-116 cells assessed as induction of BRD4 degradation incubated for 24 hrs by immunoblot analysis relative to control. The assay is classed as cell-based.
Assay [11] concerns the target BRD4/E3 ubiquitin-protein ligase Mdm2 (Homo sapiens, UniProt O60885+Q00987). The assay is described as follows: PROTAC activity at MDM2/BRD4 in human HCT-116 cells assessed as induction of BRD4 degradation incubated for 24 hrs by immunoblot analysis. It is filed as cell-based.
Assay [12] is described as follows: PROTAC activity at VHL/PRC2 in human HeLa cells assessed as induction of PRC2 degradation incubated for 24 hrs by Western blot analysis. It is filed as cell-based.
Assay [13] relates to HeLa. The assay is described as follows: PROTAC activity at VHL/PRC2 in human HeLa cells assessed as induction of PRC2 degradation incubated for 24 hrs by Western blot analysis relative to control. It is filed as cell-based.
Assay [14] has as its target Alpha-1A adrenergic receptor (Homo sapiens, UniProt P35348). Briefly: PROTAC activity at CRBN/A1AR in human HEK293 cells assessed as induction of A1AR degradation incubated for 12 hrs by Western blot analysis. The assay is classed as cell-based.
The target of assay [15] is Protein cereblon/Adenosine receptor A1 (Homo sapiens) (UniProt P30542+Q96SW2). The assay is described as follows: PROTAC activity at CRBN/A1AR in human HEK293 cells assessed as induction of A1AR degradation at 10 micromol/L incubated for 12 hrs by Western blot analysis relative to control. The assay is classed as cell-based. The conditions noted are these: dose 10.0 µmol/L.

For assay [16], the target named is von Hippel-Lindau disease tumor suppressor/Barrier-to-autointegration factor (Homo sapiens) (UniProt P40337+O75531). The assay is described as follows: PROTAC activity at VHL/BAF in human MV4-11 cells assessed as induction of BAF degradation incubated for 18 hrs by Western blot analysis relative to control. It is filed as cell-based.
Assay [17] has as its target von Hippel-Lindau disease tumor suppressor/Barrier-to-autointegration factor (Homo sapiens, UniProt O75531+P40337). Briefly: PROTAC activity at VHL/BAF in human MV4-11 cells assessed as induction of BAF degradation incubated for 18 hrs by Western blot analysis. It is filed as cell-based.

pEC50, pIC50: −log10 of the molar value.

Protein cereblon-NS3, sequence (A3EZJ3 whole entry): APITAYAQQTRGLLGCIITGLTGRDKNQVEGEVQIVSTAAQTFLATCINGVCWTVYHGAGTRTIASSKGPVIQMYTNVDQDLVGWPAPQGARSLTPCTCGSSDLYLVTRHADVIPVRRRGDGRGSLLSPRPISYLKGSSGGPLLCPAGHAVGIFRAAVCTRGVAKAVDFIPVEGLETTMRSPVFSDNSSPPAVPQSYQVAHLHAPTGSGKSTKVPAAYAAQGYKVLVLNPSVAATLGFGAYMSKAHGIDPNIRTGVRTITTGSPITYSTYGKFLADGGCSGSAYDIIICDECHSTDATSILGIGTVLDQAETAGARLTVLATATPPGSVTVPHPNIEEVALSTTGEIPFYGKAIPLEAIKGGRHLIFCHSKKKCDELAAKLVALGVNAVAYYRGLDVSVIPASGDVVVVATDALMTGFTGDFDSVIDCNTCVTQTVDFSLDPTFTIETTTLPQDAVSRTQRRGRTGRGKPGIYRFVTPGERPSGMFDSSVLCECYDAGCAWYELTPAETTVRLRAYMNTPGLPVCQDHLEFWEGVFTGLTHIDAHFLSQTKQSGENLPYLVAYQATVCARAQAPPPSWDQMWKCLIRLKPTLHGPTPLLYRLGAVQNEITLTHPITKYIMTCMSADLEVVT
Protein cereblon-NS3, sequence (Q96SW2 whole entry): as the sequence (Q96SW2 whole entry) above

For `CC(C)(/C=C(\C#N)C(=O)N1CCC[C@H](n2nc(-c3ccc(Oc4ccccc4)cc3)c3c(N)ncnc32)C1)CCCOCCOCCOCCOCCOc1cccc2c1C(=O)N(C1CCC(=O)NC1=O)C2=O` (some centres undefined), the pEC50 in assay [1] was 8.00. In assay [2], the Emax was determined as 90%.
For `Nc1ncnc2c1c(-c1ccc(Oc3ccccc3)cc1)nn2[C@H]1CCCN(C(=O)/C=C/CCCCOCCOCCOCCOCCOc2cccc3c2C(=O)N(C2CCC(=O)NC2=O)C3=O)C1` (some centres undefined) the same measures were 8.00 and 90%.
Take `CN[C@@H](C)C(=O)N[C@H](C(=O)N1C[C@@H](NC(=O)COCCOCCOCCOCCN2CCN(CCCC(=O)N3CCC[C@@H](n4nc(-c5ccc(Oc6ccccc6)cc5)c5c(N)ncnc54)C3)CC2)C[C@H]1C(=O)N[C@@H]1CCCc2ccccc21)C1CCCCC1`: the pEC50 in assay [3] was 6.70.
As for `O=C1CCC(N2C(=O)c3cccc(NCCOCCOCCOCCOCCOCCOCCOCCNCCNc4nonc4/C(=N/O)Nc4ccc(F)c(Br)c4)c3C2=O)C(=O)N1` (centres undefined), the maximal effect (Emax) in assay [4] was 93%. Besides, the pEC50 in assay [5] is 5.55.
Regarding `COc1cc2nc(N3CCN(C(=O)c4ccco4)CC3)nc(N)c2cc1OC` [PRAZOSIN], the negative logarithm of the IC50 (pIC50) in assay [6] was 4.93.
In the case of `Nc1ncnc2c1c(-c1ccc(Oc3ccccc3)cc1)nn2[C@H]1CCCN(C(=O)CCCCCCOCCOCCOCCOCCOc2cccc3c2C(=O)N(C2CCC(=O)NC2=O)C3=O)C1` (some centres undefined), in assay [1], the pEC50 is 8.66. Also, the Emax in [2] was 97%.
Consider `Cc1ncsc1-c1ccc(CNC(=O)[C@@H]2C[C@@H](O)CN2C(=O)[C@@H](NC(=O)COCCOc2ccc(-c3cc(Nc4ccc(OC(F)(F)F)cc4)ncn3)cc2)C(C)(C)C)cc1`, for which, in assay [7], the pEC50 is 6.47. For the same molecule, the Emax in assay [8] was over 95%.
For the molecule `CCC[C@H](NC(=O)[C@@H]1[C@H]2CCC[C@H]2CN1C(=O)[C@@H](NC(=O)[C@@H](NC(=O)c1cnc(C(=O)NCCCCCCNc2cccc3c2CN(C2CCC(=O)NC2=O)C3=O)cn1)C1CCCCC1)C(C)(C)C)C(=O)C(=O)NC1CC1` (some centres undefined), the pEC50 in assay [9] was 6.17.
Consider `COc1cc(C(=O)NCCOCCOCCOCCNC(=O)C[C@@H]2N=C(c3ccc(Cl)cc3)c3c(sc(C)c3C)-n3c(C)nnc32)ccc1NC(=O)[C@@H]1N[C@@H](CC(C)(C)C)[C@](C#N)(c2ccc(Cl)cc2F)[C@H]1c1cccc(Cl)c1F`, for which, in [10], the maximal response (Emax) amounted to 98%. In assay [11], the pEC50 is 7.49.
For `Cc1ncsc1-c1ccc(CNC(=O)[C@@H]2C[C@@H](O)CN2C(=O)[C@@H](NC(=O)CCCNC(=O)c2ccc(-c3cnc(NCc4ccco4)n4cnnc34)cc2)C(C)(C)C)cc1`, the pEC50 in assay [12] is over 6.15. In [13], the maximal effect (Emax) was over 80%.
Consider `CCC[C@H](NC(=O)[C@@H]1[C@H]2CCC[C@H]2CN1C(=O)[C@@H](NC(=O)[C@@H](NC(=O)c1cnc(C(=O)NCCOCCOCCOc2cc3c4c(cccc4c2)C(=O)N(C2CCC(=O)NC2=O)C3=O)cn1)C1CCCCC1)C(C)(C)C)C(=O)C(=O)NC1CC1` (some centres undefined), for which, in assay [9], the negative-log EC50 (pEC50) is 7.30.
Take `COc1cc2nc(N3CCN(C(=O)c4cn(CCOCCOCCOCC(=O)Nc5cccc6c5C(=O)N(C5CCC(=O)NC5=O)C6=O)nn4)CC3)nc(N)c2cc1OC` (centres undefined): the pEC50 in assay [14] is 5.54. Further, the maximal response (Emax) in assay [15] turned out to be 94%. The negative logarithm of the IC50 (pIC50) in assay [6] is 5.21.
`Cc1ncsc1-c1ccc(CNC(=O)[C@@H]2C[C@@H](O)CN2C(=O)[C@@H](NC(=O)C2(F)CC2)C(C)(C)C)c(OCCOc2ccc(CN3CCN(c4cc(-c5ccccc5O)nnc4N)CC3)cc2)c1`: the Emax in [16] was over 65%. Besides, in assay [17], the pEC50 is over 7.49.
For `CCC[C@H](NC(=O)[C@@H]1[C@H]2CCC[C@H]2CN1C(=O)[C@@H](NC(=O)[C@@H](NC(=O)c1cnc(C(=O)NCCOCCOCCNc2cccc3c2C(=O)N(C2CCC(=O)NC2=O)C3=O)cn1)C1CCCCC1)C(C)(C)C)C(=O)C(=O)NC1CC1` (some centres undefined), the negative logarithm of the EC50 (pEC50) in assay [9] is 6.31.

The values above are taken from ChEMBL document CHEMBL5104095, “Proteolysis targeting chimera (PROTAC) in drug discovery paradigm: Recent progress and future challenges” (Eur J Med Chem, 2021).
